Experimental data: patent EP2436673A1 (Niaraki, Anna, priority 2010, dated 2012)
Each block holds one molecule with its values, some of them ahead of it.

Key:
Aβ1-42 fibrils = biological target: T1, Aβ1-42 fibrils (Homo sapiens, UniProt P05067); assay: Surface Plasmon Resonance (SPR) binding to immobilized Aβ1-42 fibrils
T1 construct: made in house; host or cells: chemical peptide synthesis (depsi-peptide, pH switch, then acid incubation to fibrils)
Description: To prepare Aβ1-42 fibrils, the switched peptide solution was diluted with water to 100 µM, acidified to pH 2.0 with 1 M HCl, and left to incubate for 24 hrs at 37 °C [56].
(§1) For these studies we used the ProteOn XPR36 (Biorad) apparatus, which has six parallel flow channels that can be used to uniformly immobilize strips of six "ligands" on the sensor surface. Aβ1-42 "monomers" or fibrils were immobilized in two of these parallel-flow channels of a GLC sensor chip (Biorad) using amine-coupling chemistry. Briefly, after surface activation the peptide solutions (10 µM in acetate buffer pH 4.0) were injected for 5 min at a flow rate of […], and the remaining activated groups were blocked with ethanolamine, pH 8.0. Bovine serum albumin (BSA) was also immobilized in another parallel flow channel, as a reference protein. […] A fourth surface was prepared using the same immobilization procedure but without addition of the peptide ("empty", reference surface).
(§2) The fluidic system of Proteon XPR36 can automatically rotate 90° so that up to six different "analytes" (e.g. different liposomes prepations, or different concentrations of the same preparation) could be injected simultaneously over all the different immobilized molecules.
(§3) ProteOn analysis software (BioRad) was used for the fitting of sensorgrams, to obtain the association and dissociation rate constants of the binding (Kon and Koff) and the corresponding KD value. The simplest 1:1 interaction model (Langmuir model) is used at first.

Aβ1-42 monomers = biological target: T2, Aβ1-42 monomers (Homo sapiens, UniProt P05067); assay: Surface Plasmon Resonance (SPR) binding to immobilized Aβ1-42 monomers
T2 construct: The native Aβ1-42 peptide was then obtained from the depsi peptide; made in house; host or cells: chemical peptide synthesis (depsi-peptide, then pH switch)
Description: as §1, §2, §3

Aβ aggregation = details: reported in literature; cited from earlier work
[1] = additional, fibril-specific binding component, two-sites model
[2] = SPR, liposomes 18 at 300 nM exposed curcumin-derivative, plain liposomes at 1360 nM

T1 sequence (P05067 672-713 limits assumed): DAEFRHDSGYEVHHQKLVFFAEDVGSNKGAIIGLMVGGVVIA
T2 sequence (P05067 672-713 limits assumed): as above

- Kd (Aβ1-42 fibrils; [1]): 7 µM
- koff (Aβ1-42 fibrils; [1]): 0.001 s⁻¹
- kon (Aβ1-42 fibrils; [1]): 163 M⁻¹ s⁻¹
- Kd (Aβ1-42 monomers; Aβ1-42 monomers, rough estimate from Kon and Koff after global fitting, one-site model): 23 µM
SMILES: COc1cc(/C=C/c2cc(/C=C/c3ccc(O)c(OC)c3)n(CC(=O)NCc3cn(CCOCCOCCO)nn3)n2)ccc1O [TREG, 2-(3,5-bis((E)-4-hydroxy-3-methoxystyryl)-1H-pyrazol-1-yl)-N-((1-(2-(2-(2-hydroxyethoxy)ethoxy)ethyl)-1H-1,2,3-triazol-4-yl)methyl)acetamide]

- binding to Aβ1-42 fibrils (in words) (Aβ1-42 fibrils; [2]): only bound to Aβ fibrils
SMILES: Nc1c(/N=N/c2ccc(-c3ccc(/N=N/c4cc(S(=O)(=O)O)c5ccccc5c4N)cc3)cc2)cc(S(=O)(=O)O)c2ccccc12 [Congo-Red, reference compound]
- binding to Aβ1-42 monomers (in words) (Aβ1-42 monomers; [2]): only bound to Aβ fibrils but not "monomers"

SMILES: COc1cc(/C=C/C(=O)CC(=O)/C=C/c2ccc(O)c(OC)c2)ccc1O [curcumin, Curcumin]
- inhibition of Aβ aggregation (in words) (Aβ aggregation): inhibits Aβ aggregation in the low µM range
